# In patent US9655887B2, “Pharmaceutical composition and the use thereof, and application regime of said pharmaceutical composition for on-demand contraception” (BAYER PHARMA AKTIENGESELLSCHAFT, priority 2013, dated 2017):
# Biological target: EP2 subtype of the human PGE2 receptor (hEP2 receptor) (Homo sapiens, UniProt P43116)
# Assay: cAMP antagonism test, human prostaglandin E2 (subtype EP2) receptor signal
# Type: cell-based
# Procedure, shortened: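 Cells (625000 cells/ml, mixed with cAMP-d2) were preincubated 20 min at RT with compound ([…]). They were then stimulated 60 min at RT with a 3× PGE2 solution (1.5 nM) in PBS-IBMX and lysed for 20 min. cAMP was read by HTRF as the 665/620 nm ratio ×10000, with antagonism seen as a rise in FRET signal.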
# Sequence of EP2 subtype of the human PGE2 receptor (hEP2 receptor) (P43116 whole entry): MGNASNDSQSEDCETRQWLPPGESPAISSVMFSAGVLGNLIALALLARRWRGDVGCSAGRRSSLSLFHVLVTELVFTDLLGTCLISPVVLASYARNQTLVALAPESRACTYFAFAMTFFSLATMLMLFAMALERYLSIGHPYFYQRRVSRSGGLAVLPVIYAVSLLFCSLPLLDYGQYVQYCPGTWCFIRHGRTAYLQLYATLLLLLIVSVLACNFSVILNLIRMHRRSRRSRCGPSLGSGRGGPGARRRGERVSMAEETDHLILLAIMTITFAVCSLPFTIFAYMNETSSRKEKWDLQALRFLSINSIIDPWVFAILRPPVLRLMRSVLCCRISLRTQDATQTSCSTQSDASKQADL
row,SMILES,IC50 [nM]
1,"Cc1c(C(=O)NCC(F)(F)F)ccc2nn(CC3CCN(C(=O)c4ccc(Oc5cccc(F)c5)cc4)CC3)cc12 [Example E131, 2-({1-[4-(3-fluorophenoxy)benzoyl]piperidin-4-yl}methyl)-4-methyl-N-(2,2,2-trifluoro-ethyl)-2H-indazole-5-carboxamide]",> 50
2,"Cc1c(C(=O)NCC(F)(F)F)ccc2nn(CC3CCN(C(=O)c4ccc(Oc5cccc(C(F)(F)F)c5)cc4)CC3)cc12 [Example E132, 4-methyl-N-(2,2,2-trifluoroethyl)-2-[(1-{4-[3-(trifluoromethyl)phenoxy]benzoyl}-piperidin-4-yl)methyl]-2H-indazole-5-carboxamide]",> 50
3,"Cc1c(C(=O)NCC(F)(F)F)ccc2nn(CC3CCN(C(=O)c4ccc(Oc5ccc(F)c(F)c5)cc4)CC3)cc12 [Example E137, 2-({1-[4-(3,4-difluorophenoxy)benzoyl]piperidin-4-yl}methyl)-4-methyl-N-(2,2,2-trifluoroethyl)-2H-indazole-5-carboxamide]",> 50
4,"Cc1c(C(=O)NCC(F)(F)F)ccc2nn(CC3CCN(C(=O)c4ccc(-c5ccc(C(F)(F)F)cc5)cc4)CC3)cc12 [Example E138, 4-methyl-N-(2,2,2-trifluoroethyl)-2-[(1-{[4′-(trifluoromethyl)biphenyl-4-yl]carbonyl}-piperidin-4-yl)methyl]-2H-indazole-5-carboxamide]",> 50
5,"COc1ccc(-c2ccc(C(=O)N3CCC(Cn4cc5c(C)c(C(=O)NCC(F)(F)F)ccc5n4)CC3)cc2)c(C)c1 [Example E141, 2-({1-[(4′-methoxy-2′-methylbiphenyl-4-yl)carbonyl]piperidin-4-yl}methyl)-4-methyl-N-(2,2,2-trifluoroethyl)-2H-indazole-5-carboxamide]",> 50
6,"COc1cc(F)ccc1-c1ccc(C(=O)N2CCC(Cn3cc4c(C)c(C(=O)NCC(F)(F)F)ccc4n3)CC2)cc1 [Example E143, 2-({1-[(4′-fluoro-2′-methoxybiphenyl-4-yl)carbonyl]piperidin-4-yl}methyl)-4-methyl-N-(2,2,2-trifluoroethyl)-2H-indazole-5-carboxamide]",> 50
7,"COCCNC(=O)c1ccc2nn(CC3CCN(C(=O)c4ccc(Oc5ccc(C#N)cc5)cc4)CC3)cc2c1C [Example E153, 2-({1-[4-(4-cyanophenoxy)benzoyl]piperidin-4-yl}methyl)-N-(2-methoxyethyl)-4-methyl-2H-indazole-5-carboxamide]",> 50
8,"COCCNC(=O)c1ccc2nn(CC3CCN(C(=O)c4ccc(Br)c(C)c4)CC3)cc2c1C [Example E154, 2-{[1-(4-bromo-3-methylbenzoyl)piperidin-4-yl]methyl}-N-(2-methoxyethyl)-4-methyl-2H-indazole-5-carboxamide]",> 50
9,"COCCNC(=O)c1ccc2nn(CC3CCN(C(=O)c4ccc(C(C)(C)C)cc4)CC3)cc2c1C [Example E155, 2-{[1-(4-tert-butylbenzoyl)piperidin-4-yl]methyl}-N-(2-methoxyethyl)-4-methyl-2H-indazole-5-carboxamide]",> 50
10,"COCCNC(=O)c1ccc2nn(CC3CCN(C(=O)c4ccc(C5CCCCC5)cc4)CC3)cc2c1C [Example E157, 2-{[1-(4-cyclohexylbenzoyl)piperidin-4-yl]methyl}-N-(2-methoxyethyl)-4-methyl-2H-indazole-5-carboxamide]",> 50
11,"COCCNC(=O)c1ccc2nn(CC3CCN(C(=O)c4ccc(Oc5cccnc5)cc4)CC3)cc2c1C [Example E160, N-(2-methoxyethyl)-4-methyl-2-({1-[4-(pyridin-3-yloxy)benzoyl]piperidin-4-yl}methyl)-2H-indazole-5-carboxamide]",> 50
12,"COCCNC(=O)c1ccc2nn(CC3CCN(C(=O)c4ccc(Oc5ccccn5)cc4)CC3)cc2c1C [Example E162, N-(2-methoxyethyl)-4-methyl-2-({1-[4-(pyridin-2-yloxy)benzoyl]piperidin-4-yl}methyl)-2H-indazole-5-carboxamide]",> 50
13,"COCCNC(=O)c1ccc2nn(CC3CCN(C(=O)c4ccc(Oc5nccc(C(F)(F)F)n5)cc4)CC3)cc2c1C [Example E163, N-(2-methoxyethyl)-4-methyl-2-{[1-(4-{[4-(trifluoromethyl)pyrimidin-2-yl]oxy}-benzoyl)piperidin-4-yl]methyl}-2H-indazole-5-carboxamide]",> 50
14,"COCCNC(=O)c1ccc2nn(CC3CCN(C(=O)c4ccc(Oc5ccc(C(F)(F)F)nc5)cc4)CC3)cc2c1C [Example E164, N-(2-methoxyethyl)-4-methyl-2-{[1-(4-{[6-(trifluoromethyl)pyridin-3-yl]oxy}benzoyl)-piperidin-4-yl]methyl}-2H-indazole-5-carboxamide]",> 50

# The next lines start with the values.
row,IC50 [nM],SMILES
1,> 50,"Cc1c(C(=O)NCCOCC2CC2)ccc2nn(CC3CN(C(=O)c4ccc(Oc5ccc(F)cc5)cc4)C3)cc12 [Example E103, N-[2-(cyclopropylmethoxy)ethyl]-2-({1-[4-(4-fluorophenoxy)benzoyl]azetidin-3-yl}-methyl)-4-methyl-2H-indazole-5-carboxamide]"
2,> 50,"Cc1ccc(C(=O)N2CC(Cn3cc4c(C)c(C(=O)NCCOCC5CC5)ccc4n3)C2)cc1 [Example E104, N-[2-(cyclopropylmethoxy)ethyl]-4-methyl-2-{[1-(4-methylbenzoyl)azetidin-3-yl]-methyl}-2H-indazole-5-carboxamide]"
3,> 50,"Cc1c(C(=O)NCCOC(F)(F)F)ccc2nn(CC3CN(C(=O)c4ccc(Cl)cc4)C3)cc12 [Example E105, 2-{[1-(4-chlorobenzoyl)azetidin-3-yl]methyl}-4-methyl-N-[2-(trifluoromethoxy)ethyl]-2H-indazole-5-carboxamide]"
4,> 50,"Cc1c(C(=O)NCCOCC2CC2)ccc2nn(CC3CN(C(=O)c4ccc(-c5ccc(F)cc5)cc4)C3)cc12 [Example E107, N-[2-(cyclopropylmethoxy)ethyl]-2-({1-[(4′-fluorobiphenyl-4-yl)carbonyl]azetidin-3-yl}methyl)-4-methyl-2H-indazole-5-carboxamide]"
5,> 50,"COCCNC(=O)c1ccc2nn(CC3CN(C(=O)c4ccc(-c5ccc(F)cc5)cc4)C3)cc2c1C [Example E108, 2-({1-[(4′-fluorobiphenyl-4-yl)carbonyl]azetidin-3-yl}methyl)-N-(2-methoxyethyl)-4-methyl-2H-indazole-5-carboxamide]"
6,> 50,"COCCNC(=O)c1ccc2nn(CC3CN(C(=O)c4ccc(Oc5ccc(F)cc5)cc4)C3)cc2c1C [Example E109, 2-({1-[4-(4-fluorophenoxy)benzoyl]azetidin-3-yl}methyl)-N-(2-methoxyethyl)-4-methyl-2H-indazole-5-carboxamide]"
7,> 50,"Cc1c(C(=O)NCCOCC(F)(F)F)ccc2nn(CC3CN(C(=O)c4ccc(Cl)cc4)C3)cc12 [Example E112, 2-{[1-(4-chlorobenzoyl)azetidin-3-yl]methyl}-4-methyl-N-[2-(2,2,2-trifluoroethoxy)-ethyl]-2H-indazole-5-carboxamide]"
8,> 50,"Cc1c(C(=O)NCCOCC(F)(F)F)ccc2nn(CC3CN(C(=O)c4ccc(Oc5ccc(C(F)(F)F)cc5)cc4)C3)cc12 [Example E113, 4-methyl-N-[2-(2,2,2-trifluoroethoxy)ethyl]-2-[(1-{4-[4-(trifluoromethyl)phenoxy]-benzoyl}azetidin-3-yl)methyl]-2H-indazole-5-carboxamide]"
9,> 50,"Cc1c(C(=O)NCC(F)(F)F)ccc2nn(CC3CN(C(=O)c4ccc(Oc5ccc(C(F)(F)F)cc5)cc4)C3)cc12 [Example E114, 4-methyl-N-(2,2,2-trifluoroethyl)-2-[(1-{4-[4-(trifluoromethyl)phenoxy]benzoyl}-azetidin-3-yl)methyl]-2H-indazole-5-carboxamide]"
10,> 50,"Cc1c(C(=O)NCC(F)(F)F)ccc2nn(CC3CN(C(=O)c4ccc(Oc5ccc(Cl)cc5)cc4)C3)cc12 [Example E115, 2-({1-[4-(4-chlorophenoxy)benzoyl]azetidin-3-yl}methyl)-4-methyl-N-(2,2,2-trifluoro-ethyl)-2H-indazole-5-carboxamide]"
11,> 50,"COCCNC(=O)c1ccc2nn(CC3CN(C(=O)c4ccc(Oc5ccc(Cl)cc5)cc4)C3)cc2c1C [Example E116, 2-({1-[4-(4-chlorophenoxy)benzoyl]azetidin-3-yl}methyl)-N-(2-methoxyethyl)-4-methyl-2H-indazole-5-carboxamide]"
12,> 50,"COCCNC(=O)c1ccc2nn(CC3CN(C(=O)c4ccc(Oc5ccc(C(F)(F)F)cn5)cc4)C3)cc2c1C [Example E117, N-(2-methoxyethyl)-4-methyl-2-{[1-(4-{[5-(trifluoromethyl)pyridin-2-yl]oxy}benzoyl)-azetidin-3-yl]methyl}-2H-indazole-5-carboxamide]"
13,> 50,"Cc1c(C(=O)NCC(F)(F)F)ccc2nn(CC3CCN(C(=O)c4ccc(SC(F)(F)F)cc4)CC3)cc12 [Example E125, 4-methyl-N-(2,2,2-trifluoroethyl)-2-[(1-{4-[(trifluoromethyl)sulphanyl]benzoyl}-piperidin-4-yl)methyl]-2H-indazole-5-carboxamide]"
14,> 50,"Cc1c(C(=O)NCC(F)(F)F)ccc2nn(CC3CCN(C(=O)c4ccc(Oc5ccc(C(F)(F)F)cn5)cc4)CC3)cc12 [Example E127, 4-methyl-N-(2,2,2-trifluoroethyl)-2-{[1-(4-{[5-(trifluoromethyl)pyridin-2-yl]oxy}-benzoyl)piperidin-4-yl]methyl}-2H-indazole-5-carboxamide]"
15,> 50,"Cc1c(C(=O)NCC(F)(F)F)ccc2nn(CC3CCN(C(=O)c4ccc(Oc5ccc(C(F)(F)F)nc5)cc4)CC3)cc12 [Example E128, 4-methyl-N-(2,2,2-trifluoroethyl)-2-{[1-(4-{[6-(trifluoromethyl)pyridin-3-yl]oxy}-benzoyl)piperidin-4-yl]methyl}-2H-indazole-5-carboxamide]"
